Results published in patent publication US12336981B2, “Compounds and compositions for the inhibition of NAMPT” (Valo Health, Inc., priority 2010, dated 2025).

Experiments:
tumor cell lines = conditions: broad range of tumor cell lines; Ravaud et al. 2005; cited from earlier work
HepG2 cells = conditions: Hasmann et al. 2003; cited from earlier work
mouse mammary carcinoma = conditions: in vivo; cited from earlier work
[1] = test system: murine renal cell carcinoma; conditions: Drevs et al. 2003; cited from earlier work
A2780 cells [2] = experiment: In-vitro cell proliferation assay (SRB), A2780 cells; assay type: cell-based; conditions: Homo sapiens, A2780, 72 h, A2780 cells, 72 hours, SRB assay; read-out: A2780 IC50
Method in brief: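 SRB read-out: 6% TCA fix 1 h at 4° C., stain, Tris solubilize, A570. Media-only background subtracted; % inhibition from two compound concentrations.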

NAMPT = biological target: T1, NAMPT (Homo sapiens, UniProt P43490); experiment: Biochemical inhibition assay: NAMPT enzymatic reaction, NMN quantified by mass spectrometry; conditions: NAMPT enzymatic reaction; read-out: Biochem IC50
T1 construct: His tag; host or cells: E. coli
T1 sequence (P43490 whole entry): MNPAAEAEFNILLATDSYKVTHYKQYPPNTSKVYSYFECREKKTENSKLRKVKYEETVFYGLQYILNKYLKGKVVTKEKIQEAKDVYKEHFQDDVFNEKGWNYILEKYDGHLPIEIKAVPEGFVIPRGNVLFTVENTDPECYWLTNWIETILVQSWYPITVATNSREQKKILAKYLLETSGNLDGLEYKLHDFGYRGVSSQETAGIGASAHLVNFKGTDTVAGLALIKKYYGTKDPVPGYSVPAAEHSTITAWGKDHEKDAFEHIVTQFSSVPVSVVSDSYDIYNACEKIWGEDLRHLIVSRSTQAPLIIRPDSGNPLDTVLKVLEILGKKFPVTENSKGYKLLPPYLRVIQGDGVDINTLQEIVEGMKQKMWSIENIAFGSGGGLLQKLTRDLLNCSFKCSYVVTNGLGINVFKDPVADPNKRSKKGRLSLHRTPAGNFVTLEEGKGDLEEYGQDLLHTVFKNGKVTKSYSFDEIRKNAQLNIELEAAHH
Method in brief: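 Inhibition of E. coli-expressed His-tagged human NAMPT, measured as NMN formation by mass spectrometry after a 30 min room-temperature reaction containing 1 μM NAM, 100 μM PRPP and 2.5 mM ATP.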

A2780 cells [3] = experiment: Xenograft studies: A2780 tumors s.c. in C.B-17-Igh-1b-Prkdc scid mice; assay type: in vivo; conditions: female scid mice, p.o. BID for 5 or 10 days, dose selected from MTD study
Protocol: C.B-17-Igh-1b-Prkdc^scid mice (female) were injected s.c. with 5×10^6 A2780 cells (NCI) in the left flank. 10-12 days later when tumors reached 100-200 mm3 in size, mice were randomized into treatment groups of 8 mice per group including vehicle control and reference standard groups. The compounds were formulated in 60:30:10 PEG-400: D5W: Ethanol and administered p.o., at the dose volume of 10 ml/kg BID for a duration of 5 or 10 days. The dose used for efficacy was selected from the MTD (Maximum Tolerated Dose) study. Mice were weighed and tumors measured using vernier calipers every alternate day. Tumor volume was calculated according to the formula (length×width^2)/2. All animal work was approved by the Institutional Animal Care and Use Committee of Biological Resource Centre, Singapore.

U251 cells = experiment: In-vitro cell proliferation assay (SRB), U251 cells; assay type: cell-based; conditions: Homo sapiens, U-251, 72 hours
Protocol: After overnight incubation at 37° C. and 5% CO2, the compound titrations were performed in a separate dilution plate by serially diluting the compounds in DMSO to make a 1000× stock. The compounds were then further diluted to 10× final concentration in culture media, whereupon 20 μL of each dilution was added to the plated cells with controls (e.g. DMSO and blank) to make a final volume of 5 200 μL. The final DMSO concentration in each well was 0.1%. The plates were then incubated for 72 hours at 37° C. in a 5% CO2 incubator. The number of viable cells was then assessed using sulforhodamine B (SRB) assay. Cells were fixed at 4° C. for 1 hour with the addition of 50 μL 30% trichloroacetic acid (TCA) to make a final concentration of 6% 10 TCA. The plates were washed four times with H2O and allowed to dry for at least 1 hour, whereupon 100 μL of a 4% SRB in 1% acetic acid solution was added to each well and incubated at room temperature for at least 30 minutes. The plates were then washed three times with 1% acetic acid, dried, and treated with 100 μL of 10 mM Tris-Base solution. The plates were then read in a microplate reader at an absorbance of 570 nm. 15 Background was generated on a separate plate with media only. Method for Determining % Inhibition First, the signals from the background plate are averaged, then the background was subtracted from the test plates.

Structure (SMILES)	IC50 (A2780 cells [2]) [nM]	IC50 (NAMPT) [nM]	Effect on tumor in A2780 xenograft (A2780 cells [3])	IC50 (U251 cells) [nM]	other results
N#C/N=C(\NCCCCCCOc1ccc(Cl)cc1)Nc1ccncc1 [CHS-828]	–	–	–	–	Cell growth inhibition in tumor cell lines (tumor cell lines): potently inhibit cell growth
O=C(/C=C/c1cccnc1)NCCCCC1CCN(C(=O)c2ccccc2)CC1 [FK866, (E)-N-[4-(1-benzoylpiperidin-4-yl)butyl]-3-(pyridine-3-yl)-acrylamide]	–	–	–	–	Apoptosis in HepG2 cells (HepG2 cells): induces apoptosis; Tumor growth in mouse mammary carcinoma model (mouse mammary carcinoma): delay in tumor growth; Activity in murine renal cell carcinoma model [1]: anti-tumor, antimetastatic, and anti-angiogenic activities
O=C(NCc1ccc(S(=O)(=O)c2cccc(Cl)c2)cc1)c1cc2cnccc2[nH]1 [N-({4-[(3-chlorobenzene)sulfonyl]phenyl}methyl)-1H-pyrrolo[3,2-c]pyridine-2-carboxamide]	3	5	tumor regression	–	–
CC(=O)c1ccc(S(=O)(=O)c2ccc(CNC(=O)c3cc4cnccc4[nH]3)cc2)cc1 [N-({4-[(4-acetylbenzene)sulfonyl]phenyl}methyl)-1H-pyrrolo[3,2-c]pyridine-2-carboxamide]	3	7	tumor regression	–	–
O=C(NCc1ccc(S(=O)(=O)c2ccc(F)cc2)cc1)c1cc2cnccc2[nH]1 [N-({4-[(4-fluorobenzene)sulfonyl]phenyl}methyl)-1H-pyrrolo[3,2-c]pyridine-2-carboxamide]	8	38	tumor regression	–	–
O=C(NCc1ccc(S(=O)(=O)c2ccc(F)cc2)cc1)c1ccc2nccn2c1 [N-({4-[(4-fluorobenzene)sulfonyl]phenyl}methyl)imidazo[1,2-a]pyridine-6-carboxamide]	11	23	tumor regression	–	–
O=C(NCc1ccc(S(=O)(=O)c2ccccc2OC(F)(F)F)cc1)c1cc2cnccc2[nH]1 [N-[(4-{[2-(trifluoromethoxy)benzene]sulfonyl}phenyl)methyl]-1H-pyrrolo[3,2-c]pyridine-2-carboxamide]	3	16	tumor regression	–	–
O=C(NCc1ccc(S(=O)(=O)Nc2ccccc2OC(F)(F)F)cc1)c1cc2cnccc2[nH]1 [N-[(4-{[2-(trifluoromethoxy)phenyl]sulfamoyl}phenyl)methyl]-1H-pyrrolo[3,2-c]pyridine-2-carboxamide]	1	6	tumor stasis	–	–
COc1cc(-n2cccn2)ccc1S(=O)(=O)c1ccc(CNC(=O)c2cc3cnccc3[nH]2)cc1 [N-[(4-{[2-methoxy-4-(1H-pyrazol-1-yl)benzene]sulfonyl}phenyl)methyl]-1H-pyrrolo[3,2-c]pyridine-2-carboxamide]	2	16	delayed tumor growth	–	–
O=C(NCc1ccc(S(=O)(=O)c2ccccc2)cc1)c1cc2cnccc2[nH]1 [N-{[4-(benzenesulfonyl)phenyl]methyl}-1H-pyrrolo[3,2-c]pyridine-2-carboxamide]	–	–	tumor regression	40	–
O=C(NCc1ccc(S(=O)(=O)c2ccccc2)cc1)c1cc2ncccc2o1 [N-{[4-(benzenesulfonyl)phenyl]methyl}furo[3,2-b]pyridine-2-carboxamide]	–	–	–	545	–
O=C(NCc1ccc(S(=O)(=O)c2ccccc2)cc1)c1ccc2nccn2c1 [N-{[4-(benzenesulfonyl)phenyl]methyl}imidazo[1,2-a]pyridine-6-carboxamide]	11	21	tumor regression	–	–
O=C(NCc1ccc(S(=O)(=O)c2ccccc2)cc1)c1cn2ccnc2cn1 [N-{[4-(benzenesulfonyl)phenyl]methyl}imidazo[1,2-alpyrazinc-6-carboxamide]	–	–	–	> 2000	–
O=C(NCc1ccc(S(=O)(=O)c2ccccc2)cc1)c1ccc2cncn2c1 [N-{[4-(benzenesulfonyl)phenyl]methyl}imidazo[1,5-alpyridine-6-carboxamide]	–	–	–	> 2000	–
O=C(NCc1ccc(S(=O)(=O)c2ccccc2)cc1)c1cc2ccncc2s1 [N-{[4-(benzenesulfonyl)phenyl]methyl}thieno[2,3-c]pyridine-2-carboxamide]	12	11	tumor regression	–	–
O=C(NCc1ccc(S(=O)(=O)c2ccccc2)cc1)c1cc2ncccc2s1 [N-{[4-(benzenesulfonyl)phenyl]methyl}thieno[3,2-b]pyridine-2-carboxamide]	–	–	–	> 2000	–
O=C(NCc1ccc(S(=O)(=O)N2CCNCC2)cc1)c1cc2ccncc2s1 [N-{[4-(pipcrazine-1-sulfonyl)phenyl]methyl}thieno[2,3-c]pyridine-2-carboxamide]	–	–	–	405	–
O=C(NCc1ccc(S(=O)(=O)N2CCNCC2)cc1)c1ccc2nccn2c1 [N-{[4-(piperazine-1-sulfonyl)phenyl]methyl}imidazo[1,2-a]pyridine-6-carboxamide]	–	–	–	556	–
O=C(NCc1ccc(S(=O)(=O)c2cccnc2)cc1)c1cc2cnccc2[nH]1 [N-{[4-(pyridine-3-sulfonyl)phenyl]methyl}-1H-pyrrolo[3,2-c]pyridine-2-carboxamide]	48	21	delayed tumor growth	–	–
O=C(NCc1ccc(S(=O)(=O)c2ccccc2)cn1)c1cc2cnccc2[nH]1 [N-{[5-(benzenesulfonyl)pyridin-2-yl]methyl}-1H-pyrrolo[3,2-c]pyridine-2-carboxamide]	–	–	–	35	–
O=C(NCc1ccc(S(=O)(=O)c2ccccc2)nc1)c1cc2cnccc2[nH]1 [N-{[6-(benzenesulfonyl)pyridin-3-yl]methyl}-1H-pyrrolo[3,2-c]pyridine-2-carboxamide]	–	–	–	> 2000	–
